Assay results as given in ChEMBL document CHEMBL1139472, “Synthesis of N-{4-[(2,4-diamino-5-methyl-4,7-dihydro-3H-pyrrolo[2,3-d]pyrimidin-6-yl)thio]benzoyl}-L-glutamic acid and N-{4-[(2-amino-4-oxo-5-methyl-4,7-dihydro-3H-pyrrolo[2,3-d]pyrimidin-6-yl)thio]benzoyl}-L-glutamic acid as dual inhibitors of dihydrofolate reductase and thymidylate synthase and …” (J Med Chem, 2005).
Calls of active or inactive are those of the source. The rule behind the calls is not given here.

Experiments:
[1] = biological target: T1, Folylpolyglutamate synthase, mitochondrial (Homo sapiens) (UniProt Q05932); assay: Ratio of Vmax relative to […] to Km of human recombinant cytosolic FPGS
T1 sequence (whole entry): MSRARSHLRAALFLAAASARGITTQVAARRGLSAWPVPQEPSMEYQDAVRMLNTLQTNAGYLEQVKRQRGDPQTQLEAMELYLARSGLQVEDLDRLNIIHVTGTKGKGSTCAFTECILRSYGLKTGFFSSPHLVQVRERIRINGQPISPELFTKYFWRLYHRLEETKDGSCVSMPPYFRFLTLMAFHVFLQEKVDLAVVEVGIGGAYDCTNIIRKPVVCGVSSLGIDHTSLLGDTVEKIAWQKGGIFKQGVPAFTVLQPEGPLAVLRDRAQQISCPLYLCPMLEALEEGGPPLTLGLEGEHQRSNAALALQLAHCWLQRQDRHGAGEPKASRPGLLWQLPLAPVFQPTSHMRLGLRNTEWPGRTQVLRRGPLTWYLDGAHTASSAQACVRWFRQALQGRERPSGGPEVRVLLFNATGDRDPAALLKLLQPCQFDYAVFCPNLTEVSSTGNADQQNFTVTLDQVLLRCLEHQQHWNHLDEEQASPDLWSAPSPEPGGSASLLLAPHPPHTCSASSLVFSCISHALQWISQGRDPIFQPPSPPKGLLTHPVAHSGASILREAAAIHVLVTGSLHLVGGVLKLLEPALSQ

CCRF-CEM = assay: Growth inhibition of human CCRF-CEM cells at 20 uM; assay type: functional, cell-based

| Compound | Ratio [1] | Activity (CCRF-CEM) |
| --- | --- | --- |
| Nc1nc(N)c2nc(CNc3ccc(C(=O)N[C@@H](CCC(=O)O)C(=O)O)cc3)cnc2n1 | 0.17 | – |
| Cc1c(Sc2ccc(C(=O)N[C@@H](CCC(=O)O)C(=O)O)cc2)[nH]c2nc(N)[nH]c(=O)c12 | 0.06 | inactive |
